The record followed here is patent US20140056834A1, “COSMETIC COMPOSITION COMPRISING CHRYSOPHANOL AS ACTIVE INGREDIENT FOR SKIN WHITENING” (PUKYONG NATIONAL UNIVERSITY INDUSTRY-UNIVERSITY C, priority 2012, published 2014).

One series relates to mushroom tyrosinase. Briefly: Mushroom tyrosinase assay (tyrosinase inhibitory activity). It counts as biochemical. The following applies: L-tyrosine substrate, different concentrations, 30 min at 37° C. The protocol: The inhibitory effect on tyrosinase was measured using the spectrophotometric method, based on the hydroxylation of […] in mushroom tyrosinase assay.
A total of 10 μl of each chrysophanol with different concentrations and 20 μl of mushroom tyrosinase (1000 units/ml) in 50 mM phosphate buffer (pH 6.5) were added to 170 μl of an assay mixture containing a ratio of 10:10:9 of 1 mM L-tyrosine solution, 50 mM phosphate buffer (pH 6.5), and distilled water in a 96-well microplate. After 30 min of incubation at 37° C., the absorbance of the mixture was determined at 490 nm using a microplate reader (Tecan Austria GmbH, Austria).

In series [1] the test system is B16F1 cells. In words: Determination of cytotoxicity by MTT method. Type of series: cell-based, mouse. The following applies: 10 and 50 μM, 24 h incubation. The protocol: The mouse melanoma B16F1 cells were acquired from the American Type Culture Collection (ATCC, Manassas, Va.) and were cultured in Dulbecco's modification of eagle's medium (DMEM, GIBCO, New York, USA) containing 100 μg/ml penicillin-streptomycin, […] fetal bovine serum (FBS) and maintained at 37° C., 5% CO2. Cytotoxicity levels of the isolated chrysophanol compound from Microsporum sp. on B16F1 cells were measured using MTT (3-(4,5-dimethyl[…])-2,5-diphenyltetrazolium bromide) method. Briefly, B16F1 cells were cultured in 96-well plates at a density of 5×10^3 cells/well. After 24 h, cells were treated with different concentrations (10, 50, 100 μM) of chrysophanol compound. After the next 24 h of incubation, cells were washed two times with PBS and 100 μl of MTT solution (1 mg/ml) was added to each well. After next 4 h of incubation, MTT solution in each well was removed and then 100 μl of dimethyl-sulfoxide (DMSO) were added to solubilize the formazan salt. The optical density was measured at 540 nm by using UV microplate reader (Tecan Austria GmbH, Groedig, Austria). Relative cell viability was calculated compared to the non-treated blank group.

Series [2] concerns tyrosinase protein in mouse melanoma B16F1 cells. In words: Tyrosinase protein expression by western blot analysis. Type of series: cell-based. The note with it: α-MSH. As to the method: For the western blot analysis, B16F1 cells were treated with different concentrations of chrysophanol compound, added with α-MSH, incubated for a predetermined time, and then the cells were lysed with RIPA buffer (Sigma-Aldrich Corp., St. Louis, USA) and centrifuged. After the centrifugation, the same amount (15 μg) of protein in cell lysate supernatants were analyzed on 10% SDS-PAGE and proteins were blotted on an immuno-blot nitro-cellulose membrane and blocked with 5% BSA in TBS containing 0.1% Tween 20 (TBS-T) for at least 1 h and hybridized with the primary monoclonal antibodies (Santa Cruz Biotechnology Inc., CA, USA). All the primary monoclonal antibodies were diluted with TBS-T (1:1000). The protein bindings were detected using the secondary antibody conjugated to horseradish peroxidase and enhanced using chemiluminiscence ECL assay kit (Amersham Pharmacia Biosciences, England, UK) according to the manufacturer's instructions and imaged on a LAS-3000® Luminescent image analyzer (Fujifilm, Life Science, Tokyo, Japan). T

The test system of series [3] is B16F1 cells. Briefly: Melanin content in α-MSH-stimulated B16F1 cells. It counts as cell-based, mouse. The note with it: α-MSH 100 nM, 72 h. The protocol:
The melanin content was determined in accordance a procedure described previously (Hosoi et al., 1985) with slight modifications.
Briefly, B16F1 cells were seeded at a density of 2×10^4 cells per well in 24-well culture plates and then incubated for 24 h. Then, cells were treated with various concentrations ([…]) of chrysophanol. After 1 h, α-MSH (100 nM) was added and incubated for 72 h. Then, cells were washed twice with PBS and dissolved in 1 N NaOH by 30 min of boiling at 60° C. The cell lysates were centrifuged for 5 min at 5000 g and absorbance of the supernatant was measured at 405 nm.

In the case of `Cc1cc(O)c2c(c1)C(=O)c1cccc(O)c1C2=O` [chrysophanol], the tyrosinase inhibitory activity entry in the series with mushroom tyrosinase was “tyrosinase inhibitory activity was observed by chrysophanol in a dose-dependent manner”. Moreover, the “cytotoxicity (relative cell viability, MTT)” value in the series with B16F1 cells [1] was “no cytotoxicity”. Further, the tyrosinase protein expression entry was “significantly inhibited expression of tyrosinase protein” in series [2] (20 μM) and “dose-dependent inhibition of tyrosinase protein expression” in series [2] (different concentrations). For the same compound, in the series with B16F1 cells [3] (B16F1 cells, 50 μM), the “melanin content compared with positive control kojic acid” value was “almost the same as that of kojic acid”. The melanin content result in the series with B16F1 cells [3] (B16F1 cells, 5, 10, 50 μm chrysophanol) was “decrease in melanin content in B16F1 cells by the treatment of chrysphanol in a dose-dependent manner”.
